Laboratory results published in ChEMBL document CHEMBL3132769, “Fragment growing to retain or alter the selectivity of anchored kinase hinge-binding fragments” (Medchemcomm, 2014).

Tests used:
[1] = target: Epidermal growth factor receptor (Homo sapiens) (UniProt P00533); assay: Inhibition of human EGFR catalytic domain expressed in baculovirus assessed as substrate phosphorylation using fluorescence-labelled peptides as substrate at 0.06 uM after 90 mins by microfluidic peptide phosphorylation assay
[2] = target: T1, Serine/threonine-protein kinase BRSK2 (Homo sapiens) (UniProt Q8IWQ3); assay: Inhibition of human truncated BRSK2 expressed in baculovirus assessed as substrate phosphorylation using fluorescence-labelled peptides as substrate at 2 uM after 90 mins by microfluidic peptide phosphorylation assay
T1 sequence (whole entry): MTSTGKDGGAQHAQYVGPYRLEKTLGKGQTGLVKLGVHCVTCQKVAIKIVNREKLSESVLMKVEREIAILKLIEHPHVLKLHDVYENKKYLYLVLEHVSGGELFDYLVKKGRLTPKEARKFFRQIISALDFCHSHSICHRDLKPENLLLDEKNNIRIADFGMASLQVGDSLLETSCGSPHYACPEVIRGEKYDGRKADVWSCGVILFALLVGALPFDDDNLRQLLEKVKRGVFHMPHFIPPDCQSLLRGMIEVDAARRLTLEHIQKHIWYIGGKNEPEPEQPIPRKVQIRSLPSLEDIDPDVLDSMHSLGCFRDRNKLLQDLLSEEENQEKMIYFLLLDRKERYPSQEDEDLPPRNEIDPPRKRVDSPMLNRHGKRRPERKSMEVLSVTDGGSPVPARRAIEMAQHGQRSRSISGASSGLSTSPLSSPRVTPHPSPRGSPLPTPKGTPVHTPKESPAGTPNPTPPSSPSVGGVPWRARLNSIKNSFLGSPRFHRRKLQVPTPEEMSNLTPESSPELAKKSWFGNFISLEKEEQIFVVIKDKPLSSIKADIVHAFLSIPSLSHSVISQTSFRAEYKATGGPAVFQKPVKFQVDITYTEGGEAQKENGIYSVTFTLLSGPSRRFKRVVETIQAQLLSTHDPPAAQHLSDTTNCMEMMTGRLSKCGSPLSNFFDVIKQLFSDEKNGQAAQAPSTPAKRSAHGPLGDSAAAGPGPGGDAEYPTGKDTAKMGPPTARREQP

[3] = target: T2, Serine/threonine-protein kinase D1 (Homo sapiens) (UniProt Q15139); assay: Inhibition of human full length PKD1 expressed in baculovirus assessed as substrate phosphorylation using fluorescence-labelled peptides as substrate at 2 uM after 90 mins by microfluidic peptide phosphorylation assay
T2 sequence (whole entry): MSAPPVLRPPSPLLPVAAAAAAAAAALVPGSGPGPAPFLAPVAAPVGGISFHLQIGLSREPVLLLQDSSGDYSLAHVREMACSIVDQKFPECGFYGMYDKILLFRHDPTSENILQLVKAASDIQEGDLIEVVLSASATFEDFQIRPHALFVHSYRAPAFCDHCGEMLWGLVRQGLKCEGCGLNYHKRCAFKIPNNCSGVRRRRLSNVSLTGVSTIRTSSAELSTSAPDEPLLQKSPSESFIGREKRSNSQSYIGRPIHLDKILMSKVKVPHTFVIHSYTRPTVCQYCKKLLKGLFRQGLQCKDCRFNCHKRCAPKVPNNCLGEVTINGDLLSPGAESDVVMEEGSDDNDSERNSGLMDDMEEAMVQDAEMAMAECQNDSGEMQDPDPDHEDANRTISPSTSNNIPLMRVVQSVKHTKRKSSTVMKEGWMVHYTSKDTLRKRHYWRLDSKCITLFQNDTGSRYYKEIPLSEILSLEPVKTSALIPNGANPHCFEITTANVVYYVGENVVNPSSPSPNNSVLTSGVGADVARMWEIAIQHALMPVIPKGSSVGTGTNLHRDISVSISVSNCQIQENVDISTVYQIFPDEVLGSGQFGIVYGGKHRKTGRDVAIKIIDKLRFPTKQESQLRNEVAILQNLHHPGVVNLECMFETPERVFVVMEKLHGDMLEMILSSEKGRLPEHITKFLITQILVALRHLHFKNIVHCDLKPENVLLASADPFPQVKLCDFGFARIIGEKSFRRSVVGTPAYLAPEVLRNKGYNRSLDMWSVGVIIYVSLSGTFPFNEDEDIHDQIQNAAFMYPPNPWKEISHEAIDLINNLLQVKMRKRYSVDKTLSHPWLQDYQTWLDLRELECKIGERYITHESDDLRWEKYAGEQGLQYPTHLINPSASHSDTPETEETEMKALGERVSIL

[4] = target: Protein kinase C beta type (Homo sapiens) (UniProt P05771); assay: Inhibition of human truncated PKC beta1 expressed in baculovirus assessed as substrate phosphorylation using fluorescence-labelled peptides as substrate at 2 uM after 90 mins by microfluidic peptide phosphorylation assay
[5] = target: Mitogen-activated protein kinase 3 (Homo sapiens) (UniProt P27361); assay: Inhibition of human full length ERK1 expressed in Escherichia coli cell assessed as substrate phosphorylation using fluorescence-labelled peptides as substrate at 9 uM after 90 mins by microfluidic peptide phosphorylation assay
[6] = target: T3, Serine/threonine-protein kinase D3 (Homo sapiens) (UniProt O94806); settings: 0.1 uM
T3 sequence (whole entry): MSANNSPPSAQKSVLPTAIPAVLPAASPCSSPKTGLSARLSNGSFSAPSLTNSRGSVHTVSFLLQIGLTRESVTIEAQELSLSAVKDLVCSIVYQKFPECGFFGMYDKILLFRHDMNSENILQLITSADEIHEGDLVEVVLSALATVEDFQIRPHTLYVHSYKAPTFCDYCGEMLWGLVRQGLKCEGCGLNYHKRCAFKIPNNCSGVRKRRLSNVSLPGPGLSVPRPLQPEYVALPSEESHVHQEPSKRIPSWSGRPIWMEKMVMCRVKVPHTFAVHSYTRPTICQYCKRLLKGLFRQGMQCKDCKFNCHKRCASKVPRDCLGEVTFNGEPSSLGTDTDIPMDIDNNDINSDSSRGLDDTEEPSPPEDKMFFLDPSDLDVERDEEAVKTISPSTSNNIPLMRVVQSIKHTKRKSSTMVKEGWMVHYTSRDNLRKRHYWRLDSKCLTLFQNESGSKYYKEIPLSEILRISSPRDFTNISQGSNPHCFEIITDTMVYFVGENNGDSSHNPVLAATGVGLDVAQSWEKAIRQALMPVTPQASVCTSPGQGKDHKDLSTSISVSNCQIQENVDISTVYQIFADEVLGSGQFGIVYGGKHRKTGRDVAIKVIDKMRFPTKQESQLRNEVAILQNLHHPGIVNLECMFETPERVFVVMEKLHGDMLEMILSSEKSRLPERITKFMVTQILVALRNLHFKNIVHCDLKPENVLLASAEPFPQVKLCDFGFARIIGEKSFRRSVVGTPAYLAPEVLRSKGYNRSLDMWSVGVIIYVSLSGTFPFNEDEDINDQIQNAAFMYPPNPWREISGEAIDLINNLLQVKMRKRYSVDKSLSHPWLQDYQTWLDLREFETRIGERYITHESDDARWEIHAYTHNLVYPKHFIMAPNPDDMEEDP
Description: Inhibition of human full length PKD3 expressed in baculovirus assessed as substrate phosphorylation using fluorescence-labelled peptides as substrate at 0.1 uM after 90 mins by microfluidic peptide phosphorylation assay

Sequence of Mitogen-activated protein kinase 3 (Homo sapiens) (P27361 whole entry): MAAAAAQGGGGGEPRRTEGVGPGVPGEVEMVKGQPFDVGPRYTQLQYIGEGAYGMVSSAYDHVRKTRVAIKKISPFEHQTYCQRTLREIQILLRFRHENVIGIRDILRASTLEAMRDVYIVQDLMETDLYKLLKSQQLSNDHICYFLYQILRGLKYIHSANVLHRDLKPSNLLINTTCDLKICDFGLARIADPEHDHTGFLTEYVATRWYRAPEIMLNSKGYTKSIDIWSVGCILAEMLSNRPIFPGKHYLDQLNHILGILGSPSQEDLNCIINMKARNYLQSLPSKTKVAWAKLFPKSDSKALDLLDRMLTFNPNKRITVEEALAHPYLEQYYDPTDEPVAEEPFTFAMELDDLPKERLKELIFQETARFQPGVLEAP
Sequence of Epidermal growth factor receptor (Homo sapiens) (P00533 whole entry, the tested form may be a part): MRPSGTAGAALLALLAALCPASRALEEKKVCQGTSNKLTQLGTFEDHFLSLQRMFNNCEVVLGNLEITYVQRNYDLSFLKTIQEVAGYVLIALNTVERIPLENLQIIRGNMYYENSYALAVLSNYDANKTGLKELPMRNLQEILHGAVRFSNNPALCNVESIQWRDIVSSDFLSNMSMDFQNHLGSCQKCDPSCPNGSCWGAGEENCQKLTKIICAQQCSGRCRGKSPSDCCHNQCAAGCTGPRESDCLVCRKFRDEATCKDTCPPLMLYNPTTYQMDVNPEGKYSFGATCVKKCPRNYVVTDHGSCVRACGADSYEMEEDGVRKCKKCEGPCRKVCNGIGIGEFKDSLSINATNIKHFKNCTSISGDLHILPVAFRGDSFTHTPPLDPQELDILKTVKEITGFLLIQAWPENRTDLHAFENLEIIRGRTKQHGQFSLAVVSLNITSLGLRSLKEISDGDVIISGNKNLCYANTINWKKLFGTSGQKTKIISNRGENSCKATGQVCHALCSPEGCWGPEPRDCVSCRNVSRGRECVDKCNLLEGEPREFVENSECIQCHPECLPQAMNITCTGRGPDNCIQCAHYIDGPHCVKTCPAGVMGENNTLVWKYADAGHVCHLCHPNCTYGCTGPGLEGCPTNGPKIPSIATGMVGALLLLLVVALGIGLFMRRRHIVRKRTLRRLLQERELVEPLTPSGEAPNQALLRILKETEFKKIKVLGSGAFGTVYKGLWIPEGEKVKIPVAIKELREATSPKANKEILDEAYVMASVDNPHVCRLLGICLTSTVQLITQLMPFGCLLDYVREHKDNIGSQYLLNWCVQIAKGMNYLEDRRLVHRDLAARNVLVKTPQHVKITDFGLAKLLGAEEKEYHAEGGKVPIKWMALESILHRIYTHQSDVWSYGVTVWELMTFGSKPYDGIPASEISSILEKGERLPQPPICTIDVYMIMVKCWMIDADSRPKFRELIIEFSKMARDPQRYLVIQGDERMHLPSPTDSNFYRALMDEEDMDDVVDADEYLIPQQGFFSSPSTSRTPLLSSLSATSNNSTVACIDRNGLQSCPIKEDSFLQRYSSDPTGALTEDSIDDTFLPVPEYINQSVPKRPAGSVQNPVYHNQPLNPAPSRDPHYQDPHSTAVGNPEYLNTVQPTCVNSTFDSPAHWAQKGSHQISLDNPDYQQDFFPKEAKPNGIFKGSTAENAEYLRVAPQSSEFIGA
Sequence of Protein kinase C beta type (Homo sapiens) (P05771 2-671 limits assumed): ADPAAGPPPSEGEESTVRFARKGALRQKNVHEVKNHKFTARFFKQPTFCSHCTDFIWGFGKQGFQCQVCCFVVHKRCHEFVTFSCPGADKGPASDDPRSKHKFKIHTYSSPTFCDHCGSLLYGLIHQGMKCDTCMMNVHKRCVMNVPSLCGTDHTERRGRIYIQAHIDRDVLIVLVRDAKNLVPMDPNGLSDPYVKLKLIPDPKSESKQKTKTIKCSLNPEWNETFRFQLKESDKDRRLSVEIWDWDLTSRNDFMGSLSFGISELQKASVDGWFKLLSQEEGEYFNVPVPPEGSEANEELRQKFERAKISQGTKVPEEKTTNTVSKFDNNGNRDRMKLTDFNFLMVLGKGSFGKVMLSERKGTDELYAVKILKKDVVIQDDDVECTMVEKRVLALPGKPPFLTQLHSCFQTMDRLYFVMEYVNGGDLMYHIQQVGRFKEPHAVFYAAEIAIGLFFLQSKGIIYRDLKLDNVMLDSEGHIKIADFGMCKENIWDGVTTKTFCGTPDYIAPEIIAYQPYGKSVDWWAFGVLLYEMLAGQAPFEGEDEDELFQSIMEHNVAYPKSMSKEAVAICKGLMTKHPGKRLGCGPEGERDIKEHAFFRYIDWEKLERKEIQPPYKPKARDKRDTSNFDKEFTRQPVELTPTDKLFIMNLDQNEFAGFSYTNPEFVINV

NC1(Cc2ccc(Cl)cc2)CCN(c2ncnc3[nH]ccc23)CC1
inhibition [1]: 0%

NC1CCN(c2ncnc3[nH]ccc23)CC1
inhibition [2]: 2.5% | inhibition [3]: 26% | inhibition [4]: 16.5%

NCC1CN(c2ncnc3[nH]c4cnccc4c23)CCO1 (stereo unspecified)
inhibition [5]: 8.5%

C[C@H](CN(C)C)Oc1nc(Nc2cc3cccc(Cl)c3cn2)cnc1C#N
inhibition [6]: 0%
